Laboratory results published in patent US12171755B2, “PAPD5 inhibitors and methods of use thereof” (Children's Medical Center Corporation, priority 2017, dated 2024).

Molecular target: T1, PAPD5 (Homo sapiens, UniProt Q8NDF8)
T1 construct: made in house
Assay: High-throughput luminescence (KinaseGlo) RNA polyadenylation assay, ATP utilization by recombinant PAPD5
Type: biochemical
Settings: Table 4 (entries of Table 5), ratio of luminescence with inhibitor to DMSO; for Fold-change determined at compound concentration 33 μM: 33 μM compound; for Fold-change determined at compound concentration 100 μM: 100 μM compound, higher = higher inhibition; for Fold-change determined at compound concentration 10 μM: 10 μM compound
Method in brief: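 Recombinant PAPD5 polyadenylates an oligonucleotide substrate using ATP, and remaining ATP is read by KinaseGlo luciferase luminescence. Compound was incubated for 2 h at room temperature, then with luciferase for 10 min.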

T1 sequence (Q8NDF8 68-698 isoform Q8NDF8-5): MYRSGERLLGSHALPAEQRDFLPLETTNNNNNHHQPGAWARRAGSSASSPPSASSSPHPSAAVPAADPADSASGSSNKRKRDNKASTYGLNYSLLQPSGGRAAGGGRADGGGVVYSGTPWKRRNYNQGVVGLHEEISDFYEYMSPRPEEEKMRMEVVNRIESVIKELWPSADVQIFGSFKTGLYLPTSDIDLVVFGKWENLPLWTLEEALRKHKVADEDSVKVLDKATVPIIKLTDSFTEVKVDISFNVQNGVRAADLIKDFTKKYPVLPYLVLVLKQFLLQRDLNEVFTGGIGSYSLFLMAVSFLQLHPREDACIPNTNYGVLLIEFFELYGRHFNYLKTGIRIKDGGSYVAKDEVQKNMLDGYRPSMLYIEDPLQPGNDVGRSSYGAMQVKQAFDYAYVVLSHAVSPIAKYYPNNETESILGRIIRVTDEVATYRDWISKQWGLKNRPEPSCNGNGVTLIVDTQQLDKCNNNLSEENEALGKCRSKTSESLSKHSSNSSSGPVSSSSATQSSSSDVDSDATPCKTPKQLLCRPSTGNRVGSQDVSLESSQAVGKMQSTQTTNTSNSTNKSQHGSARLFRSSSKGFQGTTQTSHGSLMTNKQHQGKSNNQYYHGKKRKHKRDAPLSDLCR

SMILES	Fold-change determined at compound concentration 33 μM	Fold-change determined at compound concentration 100 μM	Fold-change determined at compound concentration 10 μM
Cc1cc(C)c2c(=O)cc(C(=O)Nc3ccc(S(=O)(=O)Nc4onc(C)c4C)cc3)oc2c1 [Entry 115, N-[4-[(3,4-dimethyl-1,2-oxazol-5-yl)sulfamoyl]phenyl]-5,7-dimethyl-4-oxochromene-2-carboxamide]	1.316	1.777	
Cc1ccc2c(=O)cc(C(=O)Nc3nnc(C)s3)oc2c1 [Entry 116, 7-methyl-N-(5-methyl-1,3,4-thiadiazol-2-yl)-4-oxo-4H-chromene-2-carboxamide]	1.459	2.138	
Cc1cccc2c(=O)cc(C(=O)Nc3nnc(C(C)C)s3)oc12 [Entry 117, 8-methyl-4-oxo-N-(5-propan-2-yl-1,3,4-thiadiazol-2-yl)chromene-2-carboxamide]	1.177	1.444	
O=c1oc2cc(O)c(O)cc2c2c1CCCC2 [Entry 118, 2,3-dihydroxy-7,8,9,10-tetrahydro-6H-benzo[c]-chromen-6-one]	1.195	1.615	
Cc1nnc(NC(=O)c2cc(=O)c3cc(F)ccc3o2)s1 [Entry 120, 6-fluoro-N-(5-methyl-1,3,4-thiadiazol-2-yl)-4-oxo-4H-chromene-2-carboxamide]	1.1	1.381	
CC(C)c1nnc(NC(=O)c2cc(=O)c3ccc(Br)cc3o2)s1 [Entry 121, 7-bromo-4-oxo-N-(5-propan-2-yl-1,3,4-thiadiazol-2-yl)chromene-2-carboxamide]	1.118	1.26	
Cc1cc2oc(C(=O)Nc3nnc(C(C)C)s3)cc(=O)c2cc1C [Entry 122, 6,7-dimethyl-4-oxo-N-(5-propan-2-yl-1,3,4-thiadiazol-2-yl)chromene-2-carboxamide]	1.134	1.377	
CSc1nnc(NC(=O)c2cc(=O)c3cc(C)c(C)cc3o2)s1 [Entry 125, 6,7-dimethyl-N-[5-(methylsulfanyl)-1,3,4-thiadiazol-2-yl]-4-oxo-4H-chromene-2-carboxamide]	1.147	1.444	
CCCc1nnc(NC(=O)c2cc(=O)c3cc(C)c(C)cc3o2)s1 [Entry 127, 6,7-dimethyl-4-oxo-N-(5-propyl-1,3,4-thiadiazol-2-yl)-4H-chromene-2-carboxamide]	1.397	1.984	
CCOC(=O)Cc1cc(=O)oc2cc(O)cc(O)c12 [Entry 128, Ethyl (5,7-dihydroxy-2-oxo-2H-chromen-4-yl)acetate]	1.314	1.957	
CCOc1ccc2oc(=O)cc(CN3CCN(C(=O)c4ccc(OC)c(OC)c4)CC3)c2c1 [Entry 129, 4-[[4-(3,4-dimethoxybenzoyl)piperazin-1-yl]methyl]-6-ethoxychromen-2-one]	1.153	1.395	
Cc1cc(=O)oc2cc(OCC(=O)Nc3ccc(O)c(C(=O)O)c3)ccc12 [Entry 130, 2-hydroxy-5-[[2-(4-methyl-2-oxochromen-7-yl)oxyacetyl]amino]benzoic acid]	1.086	1.212	
CC(Oc1ccc2c3c(c(=O)oc2c1)CCC3)C(=O)O (stereo not shown) [Entry 131, 2-[(4-Oxo-1,2,3,4-tetrahydrocyclopenta[c]chromen-7-yl)oxy]propanoic acid]	1.195	1.653	
COc1ccc(-c2coc3c2c(C)cc2oc(=O)c(CC(=O)O)c(C)c23)cc1 [Entry 132, [3-(4-methoxyphenyl)-4,9-dimethyl-7-oxo-7H-furo[2,3-f]chromen-8-yl]acetic acid]	1.303	1.774	
O=c1oc2cc(OCc3nnn[nH]3)c(Cl)cc2c2c1CCC2 [Entry 133, 8-chloro-7-(1H-tetrazol-5-ylmethoxy)-2,3-dihydrocyclopenta[c]chromen-4(1H)-one]	1.186	1.508	
COc1ccc(S(=O)(=O)Nc2cc3c(cc2Oc2ccccc2)n(C)c(=O)c(=O)n3C)cc1 [Entry 136, N-(1,4-dimethyl-2,3-dioxo-7-phenoxy-1,2,3,4-tetrahydroquinoxalin-6-yl)-4-methoxybenzenesulfonamide]	1.082	1.303	
Cc1cc2[nH]c(=O)c(=O)[nH]c2cc1S(=O)(=O)Nc1ccc(OC(F)(F)F)cc1 [Entry 137, 7-methyl-2,3-dioxo-N-[4-(trifluoromethoxy)phenyl]-1,4-dihydroquinoxaline-6-sulfonamide]	1.12	1.301	
CCOC(=O)c1cccc(NS(=O)(=O)c2cc3[nH]c(=O)c(=O)[nH]c3cc2C)c1 [Entry 139, ethyl 3-[(7-methyl-2,3-dioxo-1,4-dihydroquinoxalin-6-yl)sulfonylamino]benzoate]	1.272	1.549	
COc1cccc(C(=O)Nc2nc3nc(-c4ccccc4)cc(=O)n3[nH]2)c1 [Entry 140, 3-methoxy-N-(7-oxo-5-phenyl-1H-[1,2,4]triazolo[1,5-a]pyrimidin-2-yl)benzamide]	1.329	1.91	
Cc1ccc(-c2ccc3nnc(C)n3n2)cc1S(=O)(=O)N1CCCC1 [Entry 146, 3-methyl-6-(4-methyl-3-pyrrolidin-1-ylsulfonylphenyl)-[1,2,4]triazolo[4,3-b]pyridazine]	1.07	1.217	
CC1=C2C(=NC(=O)CC2c2ccc(O)cc2)N(c2ccc3nncn3n2)N1 (stereo not shown) [Entry 147, 4-(4-hydroxyphenyl)-3-methyl-1-([1,2,4]triazolo[4,3-b]pyridazin-6-yl)-4,5-dihydro-2H-pyrazolo[3,4-b]pyridin-6-one]	1.118	1.243	

The next lines start with the values.

Fold-change determined at compound concentration 33 μM	Fold-change determined at compound concentration 100 μM	Fold-change determined at compound concentration 10 μM	SMILES
1.319	1.366		CCn1cnc2c(=O)oc3ccc(S(=O)(=O)Nc4ccc(OC)cc4)cc3c21 [Entry 119, 1-ethyl-N-(4-methoxyphenyl)-4-oxochromeno[3,4-d]imidazole-8-sulfonamide]
1.528	2.189	1.211	CCc1nnc(NC(=O)c2cc(=O)c3cc(C)c(C)cc3o2)s1 [Entry 123, N-(5-ethyl-1,3,4-thiadiazol-2-yl)-6,7-dimethyl-4-oxo-4H-chromene-2-carboxamide]
1.437	1.858	1.241	CCSc1nnc(NC(=O)c2cc(=O)c3cc(C)c(C)cc3o2)s1 [Entry 124, N-(5-ethylsulfanyl-1,3,4-thiadiazol-2-yl)-6,7-dimethyl-4-oxochromene-2-carboxamide]
1.15	1.302		Cc1ccc2c(=O)cc(C(=O)Nc3nnc(CC(C)C)s3)oc2c1C [Entry 126, 7,8-dimethyl-N-[5-(2-methylpropyl)-1,3,4-thiadiazol-2-yl]-4-oxochromene-2-carboxamide]
1.124	1.298		Cc1cc(Cl)ccc1NS(=O)(=O)c1cc2[nH]c(=O)c(=O)[nH]c2cc1C [Entry 134, N-(4-chloro-2-methylphenyl)-7-methyl-2,3-dioxo-1,4-dihydroquinoxaline-6-sulfonamide]
1.191	1.347		COc1ccc(NS(=O)(=O)c2cc3[nH]c(=O)c(=O)[nH]c3cc2C)cc1Cl [Entry 135, N-(3-chloro-4-methoxyphenyl)-7-methyl-2,3-dioxo-1,4-dihydroquinoxaline-6-sulfonamide]
1.161	1.317		COc1cc(Cl)c(NS(=O)(=O)c2cc3[nH]c(=O)c(=O)[nH]c3cc2C)c(OC)c1 [Entry 138, N-(2-chloro-4,6-dimethoxyphenyl)-7-methyl-2,3-dioxo-1,4-dihydroquinoxaline-6-sulfonamide]
1.308	1.882		COc1ccc(-c2[nH]nc3nc(-c4cc(OC)c(OC)c(OC)c4)cc(C(=O)O)c23)cc1 [Entry 141, 3-(4-methoxyphenyl)-6-(3,4,5-trimethoxyphenyl)-2H-pyrazolo[3,4-b]pyridine-4-carboxylic acid]
1.116	1.255		CCc1cc(=O)n2nc(NCc3ccccc3C)nc2[nH]1 [Entry 143, 5-ethyl-2-[(2-methylbenzyl)amino][1,2,4]triazolo[1,5-a]pyrimidin-7(4H)-one]
1.05	1.215		Cc1nnc2ccc(-n3ncc4c3NC(=O)CC4c3ccc(O)cc3)nn12 (stereo not shown) [Entry 148, 4-(4-hydroxyphenyl)-1-(3-methyl[1,2,4]triazolo[4,3-b]pyridazin-6-yl)-1,4,5,7-tetrahydro-6H-pyrazolo[3,4-b]pyridin-6-one]
